Experimental findings from US8496967B2, “Oral formulations” (ARIAD Pharmaceuticals, Inc., priority 2006, dated 2013) are described below.

For series [1], the system named is human tumor cell lines, including prostate, endometrial, soft tissue and bone sarcoma, leukemia, lymphoma and glioblastoma cell lines. In words: in vitro proliferation of human tumor cell lines. The series is classed as cell-based.
Series [2] has the same test system. In words: in vivo xenograft models of human tumor cell lines. Background: In xenograft studies the graft and the host belong to different species.
A short description of series [3]: study of the degradation of AP23573. It counts as physicochemical.

Each structure is given as a SMILES string.

For the compound `CO[C@H]1C[C@@H]2CC[C@@H](C)[C@@](O)(O2)C(=O)C(=O)N2CCCC[C@H]2C(=O)O[C@H]([C@H](C)C[C@@H]2CC[C@@H](OP(C)(C)=O)[C@H](OC)C2)CC(=O)[C@H](C)/C=C(\C)[C@@H](O)[C@@H](OC)C(=O)[C@H](C)C[C@H](C)/C=C/C=C/C=C/1C` [AP23573, 43-dimethylphosphinate ester of rapamycin], the “inhibition of proliferation of human tumor cell lines” value in series [1] and in series [2] was “potently inhibited proliferation” each time. Also, the aqueous degradation result in series [3] (aqueous, forms ring opened seco-AP23573) is recorded as “undergoes aqueous degradation via cleavage of a lactone bond”. The oxidative degradation pathway entry in series [3] (oxidation) is “oxidation of the compound's triene moiety”.
